Assays:
Format in all cases: functional
Details in all cases: read-out: DIZ
Pseudomonas aeruginosa [1] = assay: Antibacterial activity against Pseudomonas aeruginosa at 50 ug/ml after 24 hr by agar diffusion cup-plate method
Bacillus subtilis [2] = assay: Antibacterial activity against Bacillus subtilis at 50 ug/ml after 24 hr by agar diffusion cup plate method
Candida albicans [3] = assay: Antifungal activity against Candida albicans at 50 ug/ml after 48 to 72 hr by agar diffusion cup-plate method
Pseudomonas aeruginosa [4] = assay: Antibacterial activity against Pseudomonas aeruginosa at 100 ug/ml after 24 hr by agar diffusion cup-plate method
Candida albicans [5] = assay: Antifungal activity against Candida albicans at 100 ug/ml after 48 to 72 hr by agar diffusion cup-plate method
Bacillus subtilis [6] = assay: Antibacterial activity against Bacillus subtilis at 200 ug/ml after 24 hr by agar diffusion cup plate method
Pseudomonas aeruginosa [7] = assay: Antibacterial activity against Pseudomonas aeruginosa at 200 ug/ml after 24 hr by agar diffusion cup-plate method
Escherichia coli [8] = assay: Antibacterial activity against Escherichia coli at 50 ug/ml after 24 hr by agar diffusion cup-plate method
Candida albicans [9] = assay: Antifungal activity against Candida albicans at 200 ug/ml after 48 to 72 hr by agar diffusion cup-plate method
Aspergillus niger [10] = assay: Antifungal activity against Aspergillus niger at 100 ug/ml after 48 to 72 hr by agar diffusion cup-plate method
Aspergillus niger [11] = assay: Antifungal activity against Aspergillus niger at 200 ug/ml after 48 to 72 hr by agar diffusion cup-plate method
Bacillus subtilis [12] = assay: Antibacterial activity against Bacillus subtilis at 100 ug/ml after 24 hr by agar diffusion cup plate method
Staphylococcus aureus [13] = assay: Antibacterial activity against Staphylococcus aureus at 100 ug/ml after 24 hr by agar diffusion cup-plate method
Staphylococcus aureus [14] = assay: Antibacterial activity against Staphylococcus aureus at 50 ug/ml after 24 hr by agar diffusion cup-plate method
Aspergillus niger [15] = assay: Antifungal activity against Aspergillus niger at 50 ug/ml after 48 to 72 hr by agar diffusion cup-plate method
Escherichia coli [16] = assay: Antibacterial activity against Escherichia coli at 200 ug/ml after 24 hr by agar diffusion cup-plate method
Escherichia coli [17] = assay: Antibacterial activity against Escherichia coli at 100 ug/ml after 24 hr by agar diffusion cup-plate method
Staphylococcus aureus [18] = assay: Antibacterial activity against Staphylococcus aureus at 200 ug/ml after 24 hr by agar diffusion cup-plate method

| SMILES | zone of inhibition at 50 µg/mL (Pseudomonas aeruginosa [1]) [mm] | zone of inhibition at 50 µg/mL (Bacillus subtilis [2]) [mm] | zone of inhibition at 50 µg/mL (Candida albicans [3]) [mm] | zone of inhibition at 100 µg/mL (Pseudomonas aeruginosa [4]) [mm] | zone of inhibition at 100 µg/mL (Candida albicans [5]) [mm] | zone of inhibition at 200 µg/mL (Bacillus subtilis [6]) [mm] | zone of inhibition at 200 µg/mL (Pseudomonas aeruginosa [7]) [mm] | zone of inhibition at 50 µg/mL (Escherichia coli [8]) [mm] | zone of inhibition at 200 µg/mL (Candida albicans [9]) [mm] | zone of inhibition at 100 µg/mL (Aspergillus niger [10]) [mm] | zone of inhibition at 200 µg/mL (Aspergillus niger [11]) [mm] | zone of inhibition at 100 µg/mL (Bacillus subtilis [12]) [mm] | zone of inhibition at 100 µg/mL (Staphylococcus aureus [13]) [mm] | zone of inhibition at 50 µg/mL (Staphylococcus aureus [14]) [mm] | zone of inhibition at 50 µg/mL (Aspergillus niger [15]) [mm] | zone of inhibition at 200 µg/mL (Escherichia coli [16]) [mm] | zone of inhibition at 100 µg/mL (Escherichia coli [17]) [mm] | zone of inhibition at 200 µg/mL (Staphylococcus aureus [18]) [mm] |
| --- | --- | --- | --- | --- | --- | --- | --- | --- | --- | --- | --- | --- | --- | --- | --- | --- | --- | --- |
| O=C1CC(=O)N(c2ccc([N+](=O)[O-])cc2[N+](=O)[O-])N1 | 12.1 | 10.2 | 6.2 | 13.2 | 10.1 | 16 | 16.1 | 16.2 | 10.2 | 12.2 | 14.1 | 12 | 12 | 8.4 | 10.1 | 20.2 | 18.1 | 18.1 |
| CC1=NN(c2ccc([N+](=O)[O-])cc2[N+](=O)[O-])C(=O)C1 | 12.2 | 10.2 | 10 | 16 | 14 | 12 | 22 | 12 | 20.4 | 14 | 18 | 10.1 | 18 | 14.2 | 12.2 | 20.4 | 16 | 24.1 |
| CCn1cc(C(=O)O)c(=O)c2cc(F)c(N3CCNCC3)cc21 [NORFLOXACIN] | 31.1 | 31.3 | – | 31.1 | – | 31.3 | 31.1 | 35.4 | – | – | – | 31.3 | 30.4 | 30.4 | – | 35.5 | 35.4 | 30.4 |
| O=C1CC(CCl)=NN1c1ccc([N+](=O)[O-])cc1[N+](=O)[O-] | 14 | 12.2 | 14.2 | 22.1 | 23 | 28 | 28.6 | 14.2 | 26.4 | 22.1 | 26.6 | 20.1 | 20 | 15 | 14 | 30.4 | 23 | 28.1 |
| O=[N+]([O-])c1ccc(NNC(=S)Nc2ccccc2)c([N+](=O)[O-])c1 | 12 | 10.2 | 11.5 | 14.2 | 14.1 | 18.4 | 20.2 | 10.2 | 18.4 | 14.2 | 16.2 | 14.1 | 14 | 10 | 10 | 18.6 | 14.1 | 18 |
| O=C1CS/C(=N/c2ccccc2)N1Nc1ccc([N+](=O)[O-])cc1[N+](=O)[O-] | 10.2 | 12 | 11.1 | 10.3 | 18.4 | 26.4 | 12 | 18.2 | 24.2 | 14.5 | 16.6 | 20.8 | 22.2 | 16.2 | 10.2 | 30.1 | 26.1 | 30.4 |
| CC(=O)N1C(=O)CC(=O)N1c1ccc([N+](=O)[O-])cc1[N+](=O)[O-] | 18.2 | 10.2 | 13.2 | 22.8 | 18.2 | 25.1 | 28 | 13.2 | 24.2 | 16.8 | 24 | 18.9 | 22 | 10 | 12.2 | 30.6 | 15.2 | 26.1 |
| Clc1ccccc1C(c1ccccc1)(c1ccccc1)n1ccnc1 [CLOTRIMAZOLE] | – | – | 28.4 | – | 28.4 | – | – | – | 28.4 | 28.4 | 28.4 | – | – | – | 28.4 | – | – | – |
| NC1=NN(c2ccc([N+](=O)[O-])cc2[N+](=O)[O-])C(=O)C1 | 8.4 | 10.4 | 12.3 | 12.1 | 14 | 12 | 16.3 | 12.3 | 20.8 | 10.1 | 14.3 | 8.1 | 20 | 14 | 8.4 | 20.6 | 16 | 26 |
| Cc1cc(C)n(-c2ccc([N+](=O)[O-])cc2[N+](=O)[O-])n1 | 10.2 | 10.4 | 14.3 | 18.6 | 20 | 22.9 | 25 | 14.3 | 24.5 | 18.6 | 25 | 18.5 | 23 | 14 | 10.2 | 28.5 | 23 | 24 |

— ChEMBL document CHEMBL3045717, “Synthesis and pharmacological properties of some novel pyrazolidine and pyrazole derivatives” (2012)
